Test results reported in PubChem BioAssay (NCI).
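Results reflect a 48-hour exposure of cells in 96-well plates to compound at five concentrations. GI50: concentration for 50% inhibition of growth. TGI denotes the concentration required for complete inhibition of growth.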

Columns and labels:
Test in all cases: NCI tumour cell line growth inhibition, 48 h
ACHN renal = system: ACHN renal
786-0 renal = system: 786-0 renal
HOP-92 NSCLC = system: HOP-92 NSCLC
SW-620 colon = system: SW-620 colon
HS 578T breast = system: HS 578T breast
UACC-62 melanoma = system: UACC-62 melanoma
HL-60(TB) leukemia = system: HL-60(TB) leukemia
HT29 colon = system: HT29 colon
SK-MEL-28 melanoma = system: SK-MEL-28 melanoma
NCI-H460 lung = system: NCI-H460 lung

Row | Structure (SMILES) | GI50 (ACHN renal) [µM] | TGI (ACHN renal) [µM] | GI50 (786-0 renal) [µM] | TGI (786-0 renal) [µM] | GI50 (HOP-92 NSCLC) [µM] | TGI (HOP-92 NSCLC) [µM] | GI50 (SW-620 colon) [µM] | TGI (SW-620 colon) [µM] | GI50 (HS 578T breast) [µM] | TGI (HS 578T breast) [µM] | GI50 (UACC-62 melanoma) [µM] | TGI (UACC-62 melanoma) [µM] | GI50 (HL-60(TB) leukemia) [µM] | TGI (HL-60(TB) leukemia) [µM] | GI50 (HT29 colon) [µM] | TGI (HT29 colon) [µM] | GI50 (SK-MEL-28 melanoma) [µM] | TGI (SK-MEL-28 melanoma) [µM] | GI50 (NCI-H460 lung) [µM] | TGI (NCI-H460 lung) [µM]
1 | Cc1ccc2nc3ccccc3c(NCc3ccc(Cl)cc3)c2c1 | 5.44 | 11.9 | 5.53 | 12.1 | 1.38 | 5.79 | 2.83 | 9.42 | 7.88 | 20.2 | 6.89 | 14 | 5.28 | 13.5 | 1.8 | 7.73 | 6.42 | 13.1 | 4.02 | 11.1
2 | Cc1ccc(S(=O)(=O)Oc2ccc3c4c(c(=O)oc3c2)CCCCCC4)cc1 | > 100 | > 100 | > 100 | > 100 | 1.34 | > 100 | 2.76 | > 100 | > 100 | > 100 | > 100 | > 100 | 7.17 | > 100 | 0.531 | > 100 | > 100 | > 100 | > 100 | > 100
3 | C=C1C(=O)O[C@H]2[C@H]1CC/C(COC(=O)CCCCCC(=O)OC/C1=C/CC[C@@]3(C)O[C@H]3[C@H]3OC(=O)C(=C)[C@@H]3CC1)=C\CC[C@@]1(C)O[C@@H]21 | 1.4 | 3.1 | 1.09 | 2.49 | 1.7 | 4.12 | 1.35 | 3.14 | 2.72 | 22 | 2.02 | 4.92 | 0.694 | 3.66 | 1.97 | 3.84 | 2.45 | 6.84 | 3.21 | 12.2
4 | C=CC(=O)N1CCC(c2ccc(C(N)=O)c(-c3ccc(Oc4ccccc4)cc3)n2)CC1 | 25.3 | > 100 | 31.9 | > 100 | 10.4 | 76.6 | 41.2 | > 100 | 37.2 | > 100 | 30 | > 100 | 19.5 | 58.8 | 46.7 | > 100 | 51.5 | > 100 | 46.2 | > 100
5 | O=C(CCN1CCCC1)Nc1ccc2c(NCc3ccccc3)c3ccccc3nc2c1 | 0.465 | 2.22 | 0.684 | 1.99 | 0.348 | 2.19 | 0.316 | 1.44 | 0.612 | 2.75 | 0.454 | 1.67 | 0.587 | 2.8 | 0.324 | 1.7 | 1.17 | 2.49 | 0.313 | 1.07
6 | CC1=CC2C(C(O)CC3(C)C2CC(C)C32OCOC23COCO3)C2(C)C/C(=C/O)C(=O)C=C12 (stereo not drawn) | 1.85 | 3.45 | 1.83 | 3.55 | 1.78 | 3.45 | 1.65 | 3.32 | 2.28 | 5.72 | 1.76 | 3.83 | 2.1 | 4.63 | 1.79 | 5.01 | 1.87 | 3.51 |  | 
